Source: US10676438B2, “KCNQ2-5 channel activator” (Ono Pharmaceutical Co., Ltd., priority 2014, dated 2020)
pEC50, pIC50: −log10 of the molar value. Converted amounts (≈) assume the structure as drawn.

Legend:
Human KCNQ2/3 channel = Human KCNQ2/3 channel (Homo sapiens (Human), UniProt O43525+O43526); assay: Opening action with respect to KCNQ2/3 channel by depolarization stimulation (thallium influx, FLIPR); assay type: cell-based; settings: concentration giving 50% of maximum reaction of retigabine (10 μM); human KCNQ2/3 expression CHO-DHFR- cells; 5 mM potassium and 0.5 mM thallium; read-out: KCNQ2/3 ECrtg50
Method: Human KCNQ2/3 expression cells (CHO-DHFR-cells) were seeded in each well of 384 well plate (collagen-coated, black, clear bottom) at 0.5×10^4 cells/50 μL per well, and cultured in a MEM ALPHA medium (containing 10 vol % inactivated (56° C., 30 min) Fetal Bovine Serum and 100 IU/mL Penicillin—100 μg/mL Streptomycin—2 mM L-Glutamine) at 37° C. in 5% CO2 for 18 to 24 hours. The medium in the plate was removed. Then, incubation (room temperature, 60 minutes, light-shielded) was carried out in a loading buffer (prepared by the method described in the manual of FluxOR Thallium Detection Kit (Invitrogen, F10016, F10017)). KCNQ2/3 channel opening action (thallium influx into cells) by the depolarization stimulation (5 mM potassium and 0.5 mM thallium) was measured by FLIPR TETRA (Molecular Devices). The compound of the present invention had been treated five minutes before the depolarization stimulation, and the reaction induced by the depolarization stimulation was measured over time for 180 seconds. The channel opening action of the compound of the present invention was evaluated based on the change amount of the fluorescence intensity from the time before the depolarization stimulation to the time after the passage of 180 seconds. Thus, the concentration (ECrtg50) satisfying 50% of the fluorescence intensity change of maximum reaction (at the time of 10 μM-treatment) of retigabine under this experiment condition was calculated.

hERG channel = hERG channel (Homo sapiens (Human), UniProt Q12809); assay: Evaluation of action on hERG IKr current (patch-clamp); assay type: cell-based; settings: HEK293 cell overexpressing hERG, maximum tail current, 10 minutes after application; read-out: IC50 (50% inhibitory activity of hERG channel)
Chain of hERG channel (Q12809 whole entry): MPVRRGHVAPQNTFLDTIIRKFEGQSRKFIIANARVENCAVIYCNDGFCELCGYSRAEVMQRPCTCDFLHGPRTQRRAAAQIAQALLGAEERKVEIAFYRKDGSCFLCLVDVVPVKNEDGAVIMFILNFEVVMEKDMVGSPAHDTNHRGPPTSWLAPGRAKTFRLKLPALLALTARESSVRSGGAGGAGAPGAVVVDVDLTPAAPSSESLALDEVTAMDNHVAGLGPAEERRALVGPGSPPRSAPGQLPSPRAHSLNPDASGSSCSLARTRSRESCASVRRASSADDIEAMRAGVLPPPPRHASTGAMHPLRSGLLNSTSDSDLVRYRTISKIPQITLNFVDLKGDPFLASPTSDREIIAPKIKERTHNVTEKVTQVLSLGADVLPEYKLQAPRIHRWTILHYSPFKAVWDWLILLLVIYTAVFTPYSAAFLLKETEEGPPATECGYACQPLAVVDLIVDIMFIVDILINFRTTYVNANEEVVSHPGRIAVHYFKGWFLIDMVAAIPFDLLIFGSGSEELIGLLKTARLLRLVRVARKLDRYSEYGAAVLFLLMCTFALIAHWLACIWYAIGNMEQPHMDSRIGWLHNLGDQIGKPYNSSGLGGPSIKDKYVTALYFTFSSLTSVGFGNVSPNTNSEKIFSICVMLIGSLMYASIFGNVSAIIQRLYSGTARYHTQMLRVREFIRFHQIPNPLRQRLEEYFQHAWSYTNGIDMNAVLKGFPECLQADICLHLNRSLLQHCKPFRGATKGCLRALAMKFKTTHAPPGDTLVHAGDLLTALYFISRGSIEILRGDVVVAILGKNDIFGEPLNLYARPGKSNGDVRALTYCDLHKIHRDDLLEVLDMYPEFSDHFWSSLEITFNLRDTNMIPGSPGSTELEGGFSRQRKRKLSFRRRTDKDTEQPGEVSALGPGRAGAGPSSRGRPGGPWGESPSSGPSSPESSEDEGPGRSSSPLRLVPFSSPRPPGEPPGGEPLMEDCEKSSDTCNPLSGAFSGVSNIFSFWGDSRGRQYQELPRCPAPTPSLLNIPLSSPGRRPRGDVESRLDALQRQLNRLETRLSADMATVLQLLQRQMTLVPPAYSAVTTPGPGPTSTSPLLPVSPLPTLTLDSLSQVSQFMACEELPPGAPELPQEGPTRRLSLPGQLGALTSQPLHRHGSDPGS
Method: Using HEK293 cell overexpressing a human ether-a-go-go-related gene (hERG), the maximum tale current of the hERG IKr current induced by redepolarization pulse subsequent to depolarization pulse was measured by a patch-clamp method.

[1] = Evaluation of stability in human liver microsome; assay type: in vitro ADME; settings: human, 15 min, 5 μmol/L, pH 7.4
Method: A test compound (10 mmol/L DMSO solution, 5 μL) was diluted with 50% acetonitrile aqueous solution (195 μL) to prepare 0.25 mmol/L solution.
To a reactor vessel which had been warmed to 37° C. in advance, 0.5 mg/mL of human liver microsome (Xenotech) and 245 μL of 0.1 M phosphate buffer solution (pH 7.4) including NADPH-Co-factor (BD Biosciences) were added, followed by preincubation for five minutes. Then, the above-mentioned test compound solution (5 μL) was added so as to start reaction (final concentration: 5 μmol/L). Immediately after the start, 20 μL was harvested and added to 180 μL of acetonitrile including an internal standard substance (warfarin) to stop the reaction. This solution (20 μL) was stirred with 180 μL of 50% acetonitrile aqueous solution on a plate equipped with a deproteinization filter. Then, the resulting mixture solution was subjected to suction filtration. The filtrate was adopted as a standard sample.
The above-mentioned reaction solution was incubated at 37° C. for 15 minutes, and 20 μL of the solution was added to 180 μL of cooled acetonitrile (including warfarin that is an internal standard substance) to stop the reaction. This solution (20 μL) was stirred with 180 μL of 50% acetonitrile aqueous solution on a plate equipped with a deproteinization filter, and then the resulting mixture solution was subjected to suction filtration. The filtrate was adopted as a reaction sample.
Residual rate (%) was obtained as follows: 1 μL of the sample solution was infused into LC-MS/MS (Discovery Max manufactured by Thermo Scientific), and a quotient obtained by dividing a peak area ratio of the reaction sample (peak area of test compound/peak area of internal standard substance) was divided by the peak area ratio of the standard sample was multiplied by 100.

[2] = Solubility test (DMSO precipitation method, Pharmacopoeia of Japan elution test second solution); assay type: physicochemical; settings: aqueous buffer, kinetic from dmso stock; Pharmacopoeia of Japan elution test second solution pH=6.8, room temperature, five hours; quantitation range 5 to 100 μM
Method: A calibration curve solution was prepared by diluting a test substance (10 mM DMSO solution) with acetonitrile and adding acetonitrile including an internal standard substance (candesartan) so as to be 0.1, 0.4, and 2 μM.
Sample solution was prepared as follows: 5 μL of the compound of the present invention (10 mM DMSO solution) was added to 495 μL of the Pharmacopoeia of Japan elution test second solution (pH=6.8), and the resulting mixture was stirred at room temperature for five hours. Then, the solution was placed into a solubility filter plate and subjected to suction filtration. The filtrate (20 μL) was diluted with acetonitrile, followed by adding acetonitrile including an internal standard substance ([…]).
The calibration curve and sample solutions in the amount of 5 μL were infused into LC-MS/MS (Discovery Max manufactured by Thermo Scientific) and subjected to quantitation (quantitation range: 5 to 100 μM).

[3] = system: urinary bladder extracted from rat; assay: Relaxing action on urinary bladder extracted from rat (rat Magnus test); settings: concentration at which tension change rate is -20%; carbachol 1 μM-induced contraction of rat urinary bladder strips
Method: Female Jcl Wistar rats (CLEA Japan, Inc., body weight in use: 170 to 200 g) were anesthetized by intraperitoneal administration of about 40 mg/kg of pentobarbital (Somnopentyl, Schering Plough Animal Health Corporation), and killed by bloodletting, followed by abdominal incision to extract the urinary bladder. Immediately, the extracted urinary bladder was immersed in ice-cooled Krebs buffer (Krebs Ringer bicarbonate buffer (Sigma-Aldlich Co.) containing sodium hydrogencarbonate (final concentration: 15 mM) and calcium chloride (final concentration: 2.5 mM)) which had been saturated with a mixed gas (95% O2, 5% CO2).
The urinary bladder bodies were cut in the longitudinal direction to prepare strip specimens (about 10×3 mm) on ice. Immediately, the prepared specimens were suspended in a Magnus tube with 500 mg of tension loaded. The tube was filled with Krebs buffer (37° C.) aerated with a mixed gas. Note here that specimens were prepared within 24 hours after extraction of the tissue.
When one hour or more had passed after the specimen was suspended, 2.5M KCl was added so that the final concentration became 100 mM, specimens showing contraction reaction were used.
Carbachol (a contraction-inducing substance) at the concentration of contraction of 1 μM was used to induce contraction. […] After the contraction reaction was stabilized, a physiological salt solution or the compound of the present invention was added in a cumulative manner from low concentration such that the final concentration became 1, 10, 100 nM, 1 and 10 μM.
The tension (mg) of the extracted urinary bladder was employed as an evaluation parameter. The tension was read by using analysis software WAVE THERMO 1000. Tension after addition of the contraction-inducing substance was set to 0%. The change rate of the tension after addition of the compound of the present invention relative to the tension after addition of the contraction-inducing substance was defined as tension change rate (%). The tension change rate (%) was adopted as an evaluation indicator. The tension change rate (%) is calculated from the following formula. Tension change rate (%)={Tension after addition of compound of the present invention and the like (mg)−Tension before addition of contraction-inducing substance (mg)}/{Tension after addition of contraction-inducing substance (mg)−Tension before addition of contraction-inducing substance (mg)}×100−100
The value at which the tension change rate (%) was −20% was calculated as IC20, and the value was adopted as an indicator of the relaxing action of the extracted urinary bladder.

SMILES | pEC50 (Human KCNQ2/3 channel) | pIC50 (hERG channel) | Residual rate [1] | solubility at 5 h [2] | IC20 [3]
C[C@@](O)(c1cc(Cl)c(NC(=O)NCc2ccc(C(F)(F)F)cn2)c(Cl)c1)C(F)(F)F [Example 22 (1), 1-{2,6-dichloro-4-[(2R)-1,1,1-trifluoro-2-hydroxy-2-propanyl]phenyl}-3-{[5-(trifluoromethyl)-2-pyridinyl]methyl}urea] | 7.22 | < 5.00 | 100% | 77 µM (≈ 36.7 µg/mL) | 300 nM
C[C@@](O)(c1cc(Cl)c(NC(=O)NCc2ncc(C(F)(F)F)cn2)c(Cl)c1)C(F)(F)F [Example 22 (2), 1-{2,6-dichloro-4-[(2R)-1,1,1-trifluoro-2-hydroxy-2-propanyl]phenyl}-3-{[5-(trifluoromethyl)-2-pyrimidinyl]methyl}urea] | 6.30 | < 5.00 | 100% | 89 µM (≈ 42.5 µg/mL) | 400 nM
C[C@@](O)(c1cc(Cl)c(NC(=O)NCc2ccc(C(F)(F)F)nc2)c(Cl)c1)C(F)(F)F [Example 22 (3), 1-{2,6-dichloro-4-[(2R)-1,1,1-trifluoro-2-hydroxy-2-propanyl]phenyl}-3-{[6-(trifluoromethyl)-3-pyridinyl]methyl}urea] | 6.70 | < 5.00 | 98% | 81 µM (≈ 38.6 µg/mL) | 300 nM
C[C@](O)(c1cc(Cl)c(NC(=O)NCc2ncc(C(F)(F)F)cn2)c(Cl)c1)C(F)(F)F [Example 25 (1), 1-{2,6-dichloro-4-[(2S)-1,1,1-trifluoro-2-hydroxy-2-propanyl]phenyl}-3-{[5-(trifluoromethyl)-2-pyrimidinyl]methyl}urea] | 5.85 | < 5.00 | 78% | 96 µM (≈ 45.8 µg/mL) | 600 nM
C[C@](O)(c1cc(Cl)c(NC(=O)NCc2ccc(C(F)(F)F)nc2)c(Cl)c1)C(F)(F)F [Example 25 (2), 1-{2,6-dichloro-4-[(2S)-1,1,1-trifluoro-2-hydroxy-2-propanyl]phenyl}-3-{[6-(trifluoromethyl)-3-pyridinyl]methyl}urea] | 6.52 | < 5.00 | 80% | 86 µM (≈ 41 µg/mL) | 200 nM
C[C@](O)(c1cc(Cl)c(NC(=O)NCc2ccc(Cl)cn2)c(Cl)c1)C(F)(F)F [Example 25 (5), 1-[(5-chloro-2-pyridinyl)methyl]-3-{2,6-dichloro-4-[(2S)-1,1,1-trifluoro-2-hydroxy-2-propanyl]phenyl}urea] |  | < 5.00 | 87% | 98 µM (≈ 43.4 µg/mL) | 500 nM
O=C(NCc1cnc(C(F)(F)F)nc1)Nc1c(Cl)cc([C@@H](O)C(F)(F)F)cc1Cl [Example 32 (3), 1-{2,6-dichloro-4-[(1R)-2,2,2-trifluoro-1-hydroxyethyl]phenyl}-3-{[2-(trifluoromethyl)-5-pyrimidinyl]methyl}urea] | 6.30 | < 5.00 | 100% | 100 µM (≈ 46.3 µg/mL) | 100 nM
O=C(NCc1ncc(C(F)(F)F)cn1)Nc1c(Cl)cc([C@@H](O)C(F)(F)F)cc1Cl [Example 32 (4), 1-{2,6-dichloro-4-[(1R)-2,2,2-trifluoro-1-hydroxyethyl]phenyl}-3-{[5-(trifluoromethyl)-2-pyrimidinyl]methyl}urea] | 6.70 | < 5.00 | 100% | 77 µM (≈ 35.7 µg/mL) | 200 nM
NC(c1cc(Cl)c(NC(=O)NCc2ccc(C(F)(F)F)cn2)c(Cl)c1)C(F)(F)F (stereo not shown) [Example 79 (1), 1-[4-(1-amino-2,2,2-trifluoroethyl)-2,6-dichlorophenyl]-3-{[5-(trifluoromethyl)-2-pyridinyl]methyl}urea] | 5.80 | < 5.00 | 82% | 87 µM (≈ 40.1 µg/mL) | 
